Values quoted from earlier work, collected in patent US6440950B1, “Selective and non-invasive visualization or treatment of vasculature” (The Johns Hopkins University, priority 1994, dated 2002).

Key:
[1] = in a number of species
[2] = used intraperitonially in a few patients
[3] = in vivo

- time to removal from the blood [3]: ≤ 24 h
- water solubility: water soluble
Substance: aluminum phthalocyanine tetrasulfonate [AlPcS4]
- toxicity [1]: non-toxic
- side effects [2]: no side effects have been reported
